Data set [1] can be described thus: Acute toxicity test in mice. Type of data set: in vivo. Particulars: i.v. dose of 500 mg/kg. An excerpt: The present compound is therefore believed to be a safe substance.
The subject of data set [2] is cell-mediated immunity. The experiment in a line: Picryl chloride ear swelling in cancer-inflicted (Ascites Sarcoma 180) mice. Conditions: for Increase in ear thickness: Sarcoma 180-bearing female CDF1 mice, picryl chloride, control 4.11 ± 1.11; for Rate to the control value: increase in ear thickness T/C, control = 100.0. Type of data set: in vivo, CDF1 mice. The source says:
(Effect on cell-mediated immunity in cancer-inflicted mice; picryl chloride was used as the antigen)
10^6 cells of Ascites Sarcoma 180 were intraperitoneally transplanted to groups of 12-week-old female CDF1 mice (6 mice/group). The day of transplantation was designated as Day 0. On Day 1, a 6 % solution of picryl chloride in ethanol was applied to a shaven skin (25 mm x 15 mm) of the abdomen with the use of a cut absorbent cotton (20 mm x 20 mm x 2 mm) impregnated with the solution to thereby sensitize the mice. On Day 8, both ears were measured for thickness with a dial gauge, to determine the baseline value (a).
Then, both ears were sensitized with a 20 mm x 4 mm x 1 mm cut absorbent cotton impregnated with a 1 % solution of picryl chloride in olive oil. On Day 9, both swollen ears were measured for their thickness with a dial gauge to obtain a value (b). The baseline value (a) was subtracted from the value (b) to determine the increase in ear thickness (b - a) for the control group (C).
On the other hand, 5.0, 0.5, 0.05 or 0.005 mg/kg of the test compound dissolved in physiological saline solution was orally administered once daily for 6 consecutive days between the day and 8 days after inoculation of Sarcoma 180. The mice were sensitized with picryl chloride in the same way as in the control group, and the thickness of the ears was similarly measured to determine the increase in ear thickness (b' - a') for the treatment group (T).
The rate of increase in ear thickness for the treatment group to that for the control group was calculated from the following equation: [formula] to determine the cell-mediated immunity modulating activity of the present compound.

Data set [3] relates to cell-mediated immunity. The experiment in a line: Delayed-type hypersensitivity (D.T.H.) to sheep red blood cells, foot pad swelling in normal mice. Type of data set: in vivo, CDF1 mice. Particulars: single dose; for Thickness of the foot pad: SRBC-sensitized female CDF1 mice, measured 24 h after challenge, control 8.6 ± 1.29; for % on the control's value: foot pad thickness, control = 100 %. The protocol: The action of &-benzyl malic acid on cell-mediated immunity was investigated using as its index the degree of delayed-type hypersensitivity (hereinafter referred to as D.T.H.) obtained by inoculating the foot pads of mice with sheep red blood cells (hereinafter referred to as SRBC) used as the antigen (Reference: J.Exp.Med. 139, 1529-1539, 1974).
A suspension of […] SRBCs in 0.05 ml of physiological saline solution was inoculated subcutaneously to the foot pad of one of the hind legs of CDF1 mice (female, 8 weeks old). Simultaneously, an aqueous solution containing 5, 0.5, 0.05 or 0.005 mg/kg of α-benzyl malic acid was administered intraperitoneally in a single dose. Four days after administration, a suspension of 10^8 SRBCs in 0.05 ml of physiological saline solution was subcutaneously administered to the foot pad of the other hind leg to induce secondary immune response. Twenty-four hours later, swelling on the foot pad (increased thickness of the foot pad) was measured with a calipers. The thickness of the foot pad in control animals, which had been sensitized with SRBCs and intraperitoneally administered physiological saline solution without having received the test compound, was evaluated to be 100 %. The thickness of the foot pad in the test animals that had been treated in the aforementioned way was compared with that in the control animals, thereby judging the cell-mediated immunity potentiating effect of the test compound.

Where [4] appears, read: 0.005 mg/kg orally once daily for 6 consecutive days.
Where [5] appears, read: 0.05 mg/kg orally once daily for 6 consecutive days.
[6] abbreviates: 0.5 mg/kg orally once daily for 6 consecutive days.
Setting [7] is: 5.0 mg/kg orally once daily for 6 consecutive days.

For `O=C(O)CC(O)(Cc1ccccc1)C(=O)O` (stereo not drawn) [α-benzyl malic acid], the “deaths in acute toxicity tests” value in data set [1] is given as “no deaths”. Besides, the “Increase in ear thickness” value is given as 5.18 ± 0.67 x 0.01 mm in the data set on cell-mediated immunity [2] (setting [4]); 5.29 ± 0.33 x 0.01 mm in the data set on cell-mediated immunity [2] (setting [5]); 5.29 + 0.33 x 0.01 mm in the data set on cell-mediated immunity [2] (0.05 mg/kg orally once daily for 6 consecutive days, listed as the present compound); 5.08 ± 0.56 x 0.01 mm in the data set on cell-mediated immunity [2] (setting [6]); 4.71 ± 0.95 x 0.01 mm in the data set with cell-mediated immunity [2] (setting [7]). The “Rate to the control value” is reported as 126.0% in the data set on cell-mediated immunity [2] (setting [4]), 128.7% in the data set on cell-mediated immunity [2] (setting [5]), 123.6% in the data set on cell-mediated immunity [2] (setting [6]) and 114.6% in the data set on cell-mediated immunity [2] (setting [7]). Moreover, the “Thickness of the foot pad” value in the data set on cell-mediated immunity [3] (0.005 mg/kg intraperitoneally) was 11.8 ± 1.15 x 0.1 mm; in the data set on cell-mediated immunity [3] (0.05 mg/kg intraperitoneally), 13.4 ± 1.61 x 0.1 mm; in the data set with cell-mediated immunity [3] (0.5 mg/kg intraperitoneally), 14.4 ± 1.52 x 0.1 mm; in the data set with cell-mediated immunity [3] (5 mg/kg intraperitoneally), 12.8 ± 1.42 x 0.1 mm. In addition, the “% on the control's value” worked out at 137% with cell-mediated immunity [3] (0.005 mg/kg intraperitoneally), 156% in the data set with cell-mediated immunity [3] (0.05 mg/kg intraperitoneally), 167% in the data set on cell-mediated immunity [3] (0.5 mg/kg intraperitoneally) and 149% in the data set with cell-mediated immunity [3] (5 mg/kg intraperitoneally).
As to `CC(C)C[C@H](NC(=O)[C@@H](O)[C@H](N)Cc1ccccc1)C(=O)O` [Bestatin, [(2S,3R)-5-amino-2-hydroxy-4-phenyl-(S)-leucine], reference compound], in the data set with cell-mediated immunity [3] (0.5 mg/kg intraperitoneally), the “Thickness of the foot pad” value is 12.6 ± 1.12 x 0.1 mm and the “% on the control's value” came to 147%.

Source of the values: patent publication EP0101944A1, “Immunomodulators containing as the active ingredient alpha-benzyl malic acid” (MICROBIAL CHEMISTRY RESEARCH FOUNDATION, priority 1982, dated 1984).
